Experimental data as given in patent publication US7939534B2, “Certain chemical entities, compositions, and methods” (Cytokinetics, Inc., priority 2006, dated 2011).

The compounds below were run against T1, chicken gizzard smooth muscle myosin subfragment-1 chemically crosslinked to either cardiac or skeletal actin (Gallus gallus, UniProt P10587) (assay: Dose dependent smooth muscle myosin ATPase modulation (pyruvate kinase/horseradish peroxidase/pyruvate oxidase-coupled ATPase assay)). Settings: read-out: IC50 Arithmetic Mean.
T1 construct: chicken gizzard smooth muscle myosin subfragment-1; from tissue; host or cells: chicken gizzard
Format: biochemical
Experimental: In Vitro Model of Dose Dependent Smooth Muscle Myosin Atpase Modulation
Screening assays were performed using a pyruvate kinase and lactate dehydrogenase-coupled ATPase assay containing the following reagents: Potassium PIPES (50 mM ), MgCl2 (3 mM ), KCl (100 mM ), ATP (0.15 mM ), DTT (1 mM ), BSA (0.1 mg/ml), NADH (0.5 mM ), PEP (1.5 mM ), pyruvate kinase (4 U/ml), lactate dehydrogenase (8 U/ml), and antifoam (50 ppm) (concentrations expressed are final assay concentrations). The pH was adjusted to 6.80 at 22° C. by addition of potassium hydroxide. Lead optimization assays were performed with a more sensitive pyruvate kinase/horseradish peroxidase/pyruvate oxidase-coupled ATPase assay containing the following reagents: Potassium PIPES (12 mM ), MgCl2 (2 mM ), KCl (100 mM ), ATP (0.15 mM ), BSA (0.05 mg/ml), potassium phosphate (2 mM ), amplex red (0.1 mM ), PEP (0.1 mM ), pyruvate kinase (4 U/ml), horseradish peroxidase (0.5 U/ml), pyruvate oxidase (0.5 U/ml), and antifoam (50 ppm) (concentrations expressed are final assay concentrations). The pH was adjusted to 7.00 at 22° C. by addition of potassium hydroxide.
The protein components specific to this assay are chicken gizzard smooth muscle myosin subfragment-1 that has been chemically crosslinked to either cardiac or skeletal actin using an excess of 1-Ethyl-3-[3-dimethylaminopropyl]carbodiimide hydrochloride and N-hydroxysuccinimide. The exact concentration of the crosslinked smooth muscle myosin in the assay is determined empirically, by titration to achieve a desired rate of ATP hydrolysis. The concentration varies between protein preparations due to variations in the fraction of active molecules in each preparation.
Compound dose response assays are performed by first preparing a dilution series of test compound, each with an assay mixture containing potassium PIPES, MgCl2, KCl, ATP, BSA, potassium phosphate, amplex red, PEP, crosslinked smooth muscle actomyosin (subfragment-1), antifoam, and water. The assay is started by adding an equal volume of solution containing potassium Pipes, MgCl2, KCl, BSA, potassium phosphate, pyruvate kinase, horseradish peroxidase, pyruvate oxidase, antifoam, and water. ATP hydrolysis is monitored by measuring the fluorescence of amplex red (excitation at 480 nm, emission at 615 nm). The resulting dose response curve is fit by the 4 parameter equation y=Bottom+((Top−Bottom)/(1+((IC50/X)^Hill))). The IC50 is defined as the concentration at which ATPase activity is midway between the top and bottom of the dose response curve.

Row | Structure (SMILES) | IC50
1 | CNC(=O)CNC(=O)c1ccc(N2CCCC2)nc1NCCc1cccc(F)c1 [Compound 28, 2-[(2-{[2-(3-fluorophenyl)ethyl]amino}-6-pyrrolidinyl(3-pyridyl))carbonylamino]-N-methylacetamide] | 329 nM
2 | O=C(NCc1cccnc1)c1ccc(C2=NCCO2)nc1NCCc1cccc(F)c1 [Compound 35, (2-{[2-(3-fluorophenyl)ethyl]amino}-6-(1,3-oxazolin-2-yl)(3-pyridyl))-N-(3-pyridylmethyl)carboxamide] | 1500 nM
3 | NCc1ncccc1CNC(=O)c1ccc(N2CC[C@@H](O)C2)nc1NCCc1cccc(F)c1 [Compound 36, (6-((3R)-3-hydroxypyrrolidinyl)-2-{[2-(3-fluorophenyl)ethyl]amino}(3-pyridyl))-N-{[2-(aminomethyl)(3-pyridyl)]methyl}carboxamide] | 327 nM
4 | NCc1ncccc1CNC(=O)c1ccc(C2=CCCC2)nc1NCCc1cccc(F)c1 [Compound 37, N-{[2-(aminomethyl)(3-pyridyl)]methyl}(6-cyclopent-1-enyl-2-{[2-(3-fluorophenyl)ethyl]amino}(3-pyridyl))carboxamide] | 14.6 nM
5 | NCc1ncccc1CNC(=O)c1ccc(N2CC[C@H](F)C2)nc1NCCc1cccc(F)c1 [Compound 38, (6-((3S)-3-fluoropyrrolidinyl)-2-{[2-(3-fluorophenyl)ethyl]amino}(3-pyridyl))-N-{[2-(aminomethyl)(3-pyridyl)]methyl}carboxamide] | 88.2 nM
6 | NCc1ncccc1CNC(=O)c1ccc(N2CC[C@@H](F)C2)nc1NCCc1cccc(F)c1 [Compound 39, (6-((3R)-3-fluoropyrrolidinyl)-2-{[2-(3-fluorophenyl)ethyl]amino}(3-pyridyl))-N-{[2-(aminomethyl)(3-pyridyl)]methyl}carboxamide] | 31.3 nM
7 | NCc1ncccc1CNC(=O)c1ccc(N2CCCCC2)nc1NCCc1cccc(F)c1 [Compound 40, N-{[2-(aminomethyl)(3-pyridyl)]methyl}(2-{[2-(3-fluorophenyl)ethyl]amino}-6-piperidyl(3-pyridyl))carboxamide] | 65.6 nM
8 | CNC(=O)CNC(=O)c1ccc(C2=CCN(C(=O)OC)CC2)nc1NCCc1cccc(F)c1 [Compound 43, methyl 4-(6-{[2-(3-fluorophenyl)ethyl]amino}-5-{N-[(N-methylcarbamoyl)methyl]carbamoyl}-2-pyridyl)-1,2,5,6-tetrahydropyridinecarboxylate] | 627 nM
9 | O=C(NCc1cccnc1)c1cc(Cl)c(N2CCCC2)nc1NCCc1cccc(F)c1 [Compound 48, (5-chloro-2-{[2-(3-fluorophenyl)ethyl]amino}-6-pyrrolidinyl(3-pyridyl))-N-(3-pyridylmethyl)carboxamide] | 234 nM
10 | N#Cc1cc(C(=O)NCc2cccnc2)c(NCCc2cccc(F)c2)nc1N1CCCC1 [Compound 49, (5-cyano-2-{[2-(3-fluorophenyl)ethyl]amino}-6-pyrrolidinyl(3-pyridyl))-N-(3-pyridylmethyl)carboxamide] | 165 nM
11 | COC(=O)N1CCN=C1c1ccc(C(=O)NCc2cccnc2)c(NCCc2cccc(F)c2)n1 [Compound 50, methyl 2-(6-{[2-(3-fluorophenyl)ethyl]amino}-5-[N-(3-pyridylmethyl)carbamoyl]-2-pyridyl)-2-imidazolinecarboxylate] | 21200 nM
12 | N#CN1CCN=C1c1ccc(C(=O)NCc2cccnc2)c(NCCc2cccc(F)c2)n1 [Compound 51, (6-(1-cyano(2-imidazolin-2-yl))-2-{[2-(3-fluorophenyl)ethyl]amino}(3-pyridyl))-N-(3-pyridylmethyl)carboxamide] | 435 nM
13 | NCCCN1C(=O)CC[C@@H]1CNC(=O)c1cc(F)c(N2CCCC2)nc1NCCc1cccc(F)c1 [Compound 52, N-{[(2R)-1-(3-aminopropyl)-5-oxopyrrolidin-2-yl]methyl}(5-fluoro-2-{[2-(3-fluorophenyl)ethyl]amino}-6-pyrrolidinyl(3-pyridyl))carboxamide] | 119 nM
14 | NCc1ncccc1CNC(=O)c1cc(F)c(N2CC[C@@H](F)C2)nc1NCCc1cccc(F)c1 [Compound 53, (6-((3R)-3-fluoropyrrolidinyl)-5-fluoro-2-{[2-(3-fluorophenyl)ethyl]amino}(3-pyridyl))-N-{[2-(aminomethyl)(3-pyridyl)]methyl}carboxamide] | 23 nM
15 | CC(C)(C)OC(=O)NCc1ncccc1CNC(=O)c1cc(F)c(N2CC[C@@H](O)C2)nc1NCCc1cccc(F)c1 [Compound 54, (6-((3R)-3-hydroxypyrrolidinyl)-5-fluoro-2-{[2-(3-fluorophenyl)ethyl]amino}(3-pyridyl))-N-[(2-{[(tert-butoxy)carbonylamino]methyl}(3-pyridyl))methyl]carboxamide] | 6780 nM
16 | NCc1ncccc1CNC(=O)c1cc(F)c(N2CC[C@@H](O)C2)nc1NCCc1cccc(F)c1 [Compound 55, (6-((3R)-3-hydroxypyrrolidinyl)-5-fluoro-2-{[2-(3-fluorophenyl)ethyl]amino}(3-pyridyl))-N-{[2-(aminomethyl)(3-pyridyl)]methyl}carboxamide] | 125 nM

Results, then the compound that gave them:

Row | IC50 | Structure (SMILES)
17 | 465 nM | O=C(NCc1cccnc1)c1ccc(N2CC[C@H](CO)C2)nc1NCCc1cccc(F)c1 [Compound 27, (6-[(3S)-3-(hydroxymethyl)pyrrolidinyl]-2-{[2-(3-fluorophenyl)ethyl]amino}(3-pyridyl))-N-(3-pyridylmethyl)carboxamide]
18 | 154 nM | O=C(NCc1cccnc1)c1ccc(N2CC=CC2)nc1NCCc1cccc(F)c1 [Compound 29, (2-{[2-(3-fluorophenyl)ethyl]amino}-6-(3-pyrrolinyl)(3-pyridyl))-N-(3-pyridylmethyl)carboxamide]
19 | 28400 nM | N[C@H]1CCN(c2ccc(C(=O)NCc3cccnc3)c(NCCc3cccc(F)c3)n2)C1 [Compound 30, (6-((3S)-3-aminopyrrolidinyl)-2-{[2-(3-fluorophenyl)ethyl]amino}(3-pyridyl))-N-(3-pyridylmethyl)carboxamide]
20 | 67800 nM | CN(C)C(=O)N[C@@H]1CCN(c2ccc(C(=O)NCc3cccnc3)c(NCCc3cccc(F)c3)n2)C1 [Compound 31, N-[(3R)-1-(6-{[2-(3-fluorophenyl)ethyl]amino}-5-[N-(3-pyridylmethyl)carbamoyl](2-pyridyl))pyrrolidin-3-yl](dimethylamino)carboxamide]
21 | 1170 nM | O=C(NCc1cccnc1)c1ccc(N2CCC2)nc1NCCc1cccc(F)c1 [Compound 32, (6-azetidinyl-2-{[2-(3-fluorophenyl)ethyl]amino}(3-pyridyl))-N-(3-pyridylmethyl)carboxamide]
22 | 32800 nM | O=C(NCc1cccnc1)c1ccc(N2CCCC2)nc1NCCc1ccccn1 [Compound 33, {2-[(2-(2-pyridyl)ethyl)amino]-6-pyrrolidinyl(3-pyridyl)}-N-(3-pyridylmethyl)carboxamide]
23 | 14300 nM | CC1CCN(c2ccc(C(=O)NCc3cccnc3)c(NCCc3ccccn3)n2)CC1 [Compound 34, {6-(4-methylpiperidyl)-2-[(2-(2-pyridyl)ethyl)amino](3-pyridyl)}-N-(3-pyridylmethyl)carboxamide]
24 | 29.7 nM | NCc1ncccc1CNC(=O)c1ccc(N2CCCC2)nc1NCCc1cccc(F)c1 [Compound 41, N-{[2-(aminomethyl)(3-pyridyl)]methyl}(2-{[2-(3-fluorophenyl)ethyl]amino}-6-pyrrolidinyl(3-pyridyl))carboxamide]
25 | 4500 nM | COC(=O)N[C@@H]1CCN(c2ccc(C(=O)NCc3cccnc3)c(NCCc3cccc(F)c3)n2)C1 [Compound 44, N-[(3R)-1-(6-{[2-(3-fluorophenyl)ethyl]amino}-5-[N-(3-pyridylmethyl)carbamoyl](2-pyridyl))pyrrolidin-3-yl]methoxycarboxamide]
26 | 13200 nM | O=C(NCc1cccnc1)c1ccc(N2CCCCC2)nc1NCCc1ccccn1 [Compound 45, {6-piperidyl-2-[(2-(2-pyridyl)ethyl)amino](3-pyridyl)}-N-(3-pyridylmethyl)carboxamide]
27 | 35500 nM | N[C@@H]1CCN(c2ccc(C(=O)NCc3cccnc3)c(NCCc3cccc(F)c3)n2)C1 [Compound 46, (6-((3R)-3-aminopyrrolidinyl)-2-{[2-(3-fluorophenyl)ethyl]amino}(3-pyridyl))-N-(3-pyridylmethyl)carboxamide]
28 | 687 nM | O=C(NCc1cccnc1)c1ccc(N2CC=CCC2)nc1NCCc1cccc(F)c1 [Compound 47, (2-{[2-(3-fluorophenyl)ethyl]amino}-6-(1,2,5,6-tetrahydropyridyl)(3-pyridyl))-N-(3-pyridylmethyl)carboxamide]
